{"source": "patent US20240317741A1", "about": "“NAPHTHYRIDINE DERIVATIVE AS ATR INHIBITOR AND METHOD FOR PREPARING SAME” (WIGEN BIOMEDICINE TECHNOLOGY (SHANGHAI) CO., LTD., priority 2021, published 2024)", "key": {"[1]": {"test": "Liver microsomal stability (mouse)", "assay_type": "in vitro ADME", "details": "mouse liver microsomes, 1 μM compound, NADPH regeneration system, 37° C.", "protocol": "(§1) After 1 μM compound was incubated with 500 µg/mL of human or mouse liver microsomes and a NADPH regeneration system at 37° C. for different times, respectively, LC-MS-MS was used to analyze the remaining amount of the compound and calculate T1/2."}, "MIA PaCa-2 cells [2]": {"system": "MIA PaCa-2 cells", "test": "In-vitro anti-proliferative activity in combination with gemcitabine against MIA PaCa-2 cells", "assay_type": "cell-based", "details": "in combination with 20 nM gemcitabine, 72 h after dosing", "protocol": "(§2) MIA PaCa-2 cells were seeded on a 384-well plate at 3000 cells/well, and 20 nM gemcitabine was added. After overnight adherence culture, DMSO or the compounds serially diluted 1:5 from 100 nM were added. […] The inhibition percentage of viable cells by the compounds was calculated by comparing with the DMSO group, and the IC50 value was calculated."}, "MIA PaCa-2 cells [3]": {"system": "MIA PaCa-2 cells", "test": "In-vitro anti-proliferative activity against MIA PaCa-2 cells", "assay_type": "cell-based", "details": "72 h after dosing, intracellular ATP content", "protocol": "as §2, with “cells/well.” for “cells/well, and 20 nM gemcitabine was added.”, “5 μM” for “100 nM”"}, "[4]": {"test": "Pharmacokinetic evaluation in rats", "assay_type": "in vivo, SD female rats", "protocol": "SPF-grade SD female rats aged 7 to 10 weeks were intravenously administered and orally administered at a dose of 1 mg/kg and 10 mg/kg, respectively. The rats were fasted for at least 12 h before the administration and given food 4 h after the administration, and they were given ad libitum access to water during the experiment.\nOn the day of the experiment, animals in the intravenous group were administered the corresponding compound by single injection via the tail vein at an administration volume of 2 mL/kg, and animals in the oral group were administered the corresponding compound by single intragastric injection at an administration volume of 10 mL/kg. The animals were weighed before administration, and the administration volume was calculated according to the body weight. The sample collection time was 0.083 h (only intravenous group), 0.125 h (only oral group), 0.25 h, 0.5 h, 1 h, 2 h, 4 h, 6 h, 8 h and 24 h. About 200 μL of whole blood (EDTA-K2 anticoagulated) was collected via the jugular vein or other suitable vein at each time point and used to prepare plasma for concentration determination by high performance liquid chromatography-tandem mass spectrometry (LC-MS/MS). All animals were suffocated by CO2 after the PK samples were collected at the last time point. The plasma concentrations were processed using a non-compartmental model of Winnolin™ version 8.2 (Pharsight, mountain View, CA) pharmacokinetic software, and the pharmacokinetic parameters were calculated using a linear-log trapezoidal method."}, "[5]": {"system": "Human colon cancer LOVO cells", "test": "In vivo efficacy in LoVo model", "parameters": "species or system nude mouse", "details": "LoVo model in nude mice, 20 mpk BID PO, days 1-3, 8-10, 15-17 and day 21", "protocol": "After being subcultured, the cells were collected when they reached the desired amount. 1×10^7 LOVO cells were injected into the left dorsal side of each nude mouse, and the animals were randomly grouped for administration after tumors grew to 100-200 mm^3. The groups were as follows: a solvent control group of 8 mice and a compound group of 8 mice. The compounds were administered orally 3 days a week and interrupted for 4 days, for 21 consecutive days. The vehicle was a 0.5% MC suspension containing 1% tween-80. On Tuesday and Thursday each week, tumor volumes and body weight of the mice were measured, and the nude mice were sacrificed on day 21 after the administration. […] The toxicity of the compounds was evaluated according to the body weight of the mice."}, "[6]": {"system": "Human colon cancer HT29 cells", "test": "In vivo efficacy in HT-29 model, alone and with gemcitabine", "parameters": "species or system nude mouse", "details": "HT-29 model in nude mice, compound 20 mpk BID PO 3 on/4 off + GMC 15 mpk QW IP; day 21", "protocol": "After being subcultured, the cells were collected when they reached the desired amount. 1×10^7 HT29 cells were injected into the left dorsal side of each nude mouse, and the animals were randomly grouped for administration after tumors grew to 100-200 mm^3. The groups were as follows: a solvent control group of 6 mice, a single drug group of 15 mg/kg gemcitabine (GMC), and a combination group of 15 mg/kg gemcitabine and a compound. Gemcitabine was administered intraperitoneally with PBS as a vehicle once a week. The compounds were administered 3 days a week and interrupted for 4 days (3 on/4 off), for 21 consecutive days, and the vehicle was a 0.5% MC suspension containing 1% tween-80. On Tuesday and Thursday each week, tumor volumes and body weight of the mice were measured, and the nude mice were sacrificed on day 21 after the administration. […] The toxicity of the compounds was evaluated according to the body weight of the mice."}, "[7]": {"test": "Liver microsomal stability (human)", "assay_type": "in vitro ADME", "details": "human liver microsomes, 1 μM compound, NADPH regeneration system, 37° C.", "protocol": "as §1"}, "[8]": {"test": "In vivo pharmacokinetic experiment in mice", "parameters": "species or system CD-1 female mice", "protocol": "CD-1 female mice aged 7 to 10 weeks were intravenously administered and orally administered at a dose of 2 mg/kg and 10 mg/kg, respectively. The mice were fasted for at least 12 h before the administration and given food 4 h after the administration, and they were given ad libitum access to water during the experiment.\nOn the day of the experiment, animals in the intravenous group were administered the corresponding compound by single injection via the tail vein at an administration volume of 10 mL/kg, and animals in the oral group were administered the corresponding compound by single intragastric injection at an administration volume of 10 mL/kg. The animals were weighed before administration, and the administration volume was calculated according to the body weight. The sample collection time was 0.083 h, 0.167 h, 0.5 h, 1 h, 2 h, 4 h, 8 h and 24 h. About 200 μL of whole blood was collected through the orbital venous plexus at each time point and used to prepare plasma for concentration determination by high performance liquid chromatography-tandem mass spectrometry (LC-MS/MS). The plasma concentrations were processed using a non-compartmental model of Winnolin pharmacokinetic software, and the pharmacokinetic parameters were calculated using a linear-log trapezoidal method."}}}
{"substance": "(R)-1-(2-(3-methylmorpholino)-8-(1H-pyrazol-5-yl)-1,7-naphthyridin-4-ylmethyl)cyclohexane-1-carbonitrile [Compound 25]", "values": [{"measurement": "T1/2 (min) Mouse", "setting": "[1]", "value": 2.90, "unit": "min"}, {"measurement": "IC50", "setting": "MIA PaCa-2 cells [2]", "value": 0.257, "unit": "nM"}, {"measurement": "IC50", "setting": "MIA PaCa-2 cells [3]", "value": "< 1000", "unit": "nM"}, {"measurement": "AUC0-last", "setting": "[4]; Injection (1 mg/kg)", "value": 269.92, "unit": "ng·h/mL"}, {"measurement": "Cl", "setting": "[4]; Injection (1 mg/kg)", "value": 61.75, "unit": "mL/min/kg"}, {"measurement": "T1/2", "setting": "[4]; Injection (1 mg/kg)", "value": 39, "unit": "min"}, {"measurement": "Vdss", "setting": "[4]; Injection (1 mg/kg)", "value": 2.14, "unit": "L/kg"}, {"measurement": "AUC0-last", "setting": "[4]; Oral administration (10 mg/kg)", "value": 1309.43, "unit": "ng·h/mL"}, {"measurement": "Cmax", "setting": "[4]; Oral administration (10 mg/kg)", "value": 396.33, "unit": "ng/mL"}, {"measurement": "F %", "setting": "[4]; Oral administration (10 mg/kg)", "value": 48.5, "unit": "%"}, {"measurement": "T1/2", "setting": "[4]; Oral administration (10 mg/kg)", "value": 30, "unit": "min"}, {"measurement": "Tmax", "setting": "[4]; Oral administration (10 mg/kg)", "value": 54, "unit": "min"}, {"measurement": "TGI(%)", "setting": "[5]", "value": 84.0, "unit": "%"}, {"measurement": "TGI(%)", "setting": "[6]", "value": 86.1, "unit": "%"}, {"measurement": "T1/2 (min) Human", "setting": "[7]", "value": 7.90, "unit": "min"}, {"measurement": "AUC0-last", "setting": "[8]; Injection (2 mg/kg)", "value": 203.21, "unit": "ng·h/mL"}, {"measurement": "Cl", "setting": "[8]; Injection (2 mg/kg)", "value": 82.02, "unit": "mL/min/kg"}, {"measurement": "T1/2", "setting": "[8]; Injection (2 mg/kg)", "value": 19.8, "unit": "min"}, {"measurement": "Vdss", "setting": "[8]; Injection (2 mg/kg)", "value": 1.84, "unit": "L/kg"}, {"measurement": "AUC0-last", "setting": "[8]; Oral administration (10 mg/kg)", "value": 1103.1, "unit": "ng·h/mL"}, {"measurement": "Cmax", "setting": "[8]; Oral administration (10 mg/kg)", "value": 455, "unit": "ng/mL"}, {"measurement": "F %", "setting": "[8]; Oral administration (10 mg/kg)", "value": 54.3, "unit": "%"}, {"measurement": "T1/2", "setting": "[8]; Oral administration (10 mg/kg)", "value": 53.4, "unit": "min"}, {"measurement": "Tmax", "setting": "[8]; Oral administration (10 mg/kg)", "value": 60, "unit": "min"}]}
